From the NIST ThermoML archive (doi:10.1016/j.jct.2006.07.018)
± gives the expanded uncertainty stated by the source.

Assay: molar heat capacity at constant pressure; mn = molality of the nth substance listed, in mol/kg
Details: 350 kPa, Liquid, high-precision DSC

CSCC[C@H](N)C(=O)O [L-methionine] + O
molar heat capacity at constant pressure [J/K/mol]
Details	m1 = 0.0125	m1 = 0.025	m1 = 0.05	m1 = 0.0997	m1 = 0.1501	m1 = 0.1929
278.15 K	75.75 ± 0.15	75.8 ± 0.15	75.86 ± 0.15	76.01 ± 0.15	76.17 ± 0.15	76.3 ± 0.15
283.15 K	75.58 ± 0.15	75.64 ± 0.15	75.71 ± 0.15	75.87 ± 0.15	76.04 ± 0.15	76.19 ± 0.15
288.15 K	75.47 ± 0.15	75.53 ± 0.15	75.6 ± 0.15	75.78 ± 0.15	75.96 ± 0.15	76.12 ± 0.15
293.15 K	75.39 ± 0.15	75.46 ± 0.15	75.53 ± 0.15	75.72 ± 0.15	75.92 ± 0.15	76.08 ± 0.15
298.15 K	75.34 ± 0.15	75.41 ± 0.15	75.49 ± 0.15	75.69 ± 0.15	75.89 ± 0.15	76.06 ± 0.15
303.15 K	75.31 ± 0.15	75.38 ± 0.15	75.46 ± 0.15	75.67 ± 0.15	75.88 ± 0.15	76.05 ± 0.15
308.15 K	75.3 ± 0.15	75.37 ± 0.15	75.45 ± 0.15	75.66 ± 0.15	75.88 ± 0.15	76.05 ± 0.15
313.15 K	75.3 ± 0.15	75.37 ± 0.15	75.46 ± 0.15	75.67 ± 0.15	75.9 ± 0.15	76.06 ± 0.15
318.15 K	75.31 ± 0.15	75.38 ± 0.15	75.47 ± 0.15	75.68 ± 0.15	75.92 ± 0.15	76.09 ± 0.15
323.15 K	75.33 ± 0.15	75.4 ± 0.15	75.5 ± 0.15	75.71 ± 0.15	75.95 ± 0.15	76.12 ± 0.15
328.15 K	75.37 ± 0.15	75.44 ± 0.15	75.53 ± 0.15	75.75 ± 0.15	75.99 ± 0.15	76.16 ± 0.15
333.15 K	75.41 ± 0.15	75.48 ± 0.15	75.57 ± 0.15	75.79 ± 0.15	76.03 ± 0.15	76.21 ± 0.15
338.15 K	75.45 ± 0.15	75.53 ± 0.15	75.62 ± 0.15	75.84 ± 0.15	76.08 ± 0.15	76.26 ± 0.15
343.15 K	75.51 ± 0.15	75.59 ± 0.15	75.68 ± 0.15	75.9 ± 0.15	76.13 ± 0.15	76.32 ± 0.15
348.15 K	75.58 ± 0.15	75.65 ± 0.15	75.75 ± 0.15	75.96 ± 0.15	76.2 ± 0.15	76.38 ± 0.15
353.15 K	75.65 ± 0.15	75.72 ± 0.15	75.82 ± 0.15	76.03 ± 0.15	76.27 ± 0.15	76.46 ± 0.15
358.15 K	75.73 ± 0.15	75.8 ± 0.15	75.9 ± 0.15	76.11 ± 0.15	76.35 ± 0.15	76.54 ± 0.15
363.15 K	75.82 ± 0.15	75.88 ± 0.15	75.98 ± 0.15	76.2 ± 0.15	76.43 ± 0.15	76.62 ± 0.15
368.15 K	75.91 ± 0.15	75.98 ± 0.15	76.08 ± 0.15	76.29 ± 0.15	76.53 ± 0.15	76.71 ± 0.15
373.15 K	76.01 ± 0.15	76.08 ± 0.15	76.18 ± 0.15	76.39 ± 0.15	76.63 ± 0.15	76.81 ± 0.15
378.15 K	76.13 ± 0.15	76.19 ± 0.15	76.29 ± 0.15	76.5 ± 0.15	76.74 ± 0.15	76.92 ± 0.15
383.15 K	76.24 ± 0.15	76.31 ± 0.15	76.41 ± 0.15	76.62 ± 0.15	76.85 ± 0.15	77.03 ± 0.15
388.15 K	76.38 ± 0.15	76.45 ± 0.15	76.54 ± 0.15	76.74 ± 0.15	76.98 ± 0.15	77.15 ± 0.15
393.15 K	76.52 ± 0.15	76.6 ± 0.15	76.68 ± 0.15	76.88 ± 0.15	77.11 ± 0.15	77.28 ± 0.15
